The values that follow come from patent US12492181B2, “Gem-disubstituted piperidine melanocortin subtype-2 receptor (MC2R) antagonists and uses thereof” (Crinetics Pharmaceuticals, Inc., priority 2019, dated 2025).

T1 sequence (Q01718 whole entry): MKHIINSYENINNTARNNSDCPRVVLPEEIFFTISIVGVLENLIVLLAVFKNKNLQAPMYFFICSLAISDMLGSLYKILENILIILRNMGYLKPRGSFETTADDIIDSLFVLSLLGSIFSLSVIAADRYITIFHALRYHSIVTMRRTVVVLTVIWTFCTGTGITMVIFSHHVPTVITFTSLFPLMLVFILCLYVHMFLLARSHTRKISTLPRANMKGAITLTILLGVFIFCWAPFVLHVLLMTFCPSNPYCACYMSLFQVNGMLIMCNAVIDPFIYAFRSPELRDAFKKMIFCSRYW
T1 sequence (Q8TCY5 whole entry partner): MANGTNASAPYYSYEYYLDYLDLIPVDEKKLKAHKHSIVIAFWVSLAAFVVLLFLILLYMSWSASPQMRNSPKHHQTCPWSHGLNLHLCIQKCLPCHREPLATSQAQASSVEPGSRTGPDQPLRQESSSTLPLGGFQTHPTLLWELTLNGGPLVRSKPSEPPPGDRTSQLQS

The assay has as its target T1, hMC2 receptor (crude hMC2R membranes from CRE-bla-CHO-K1 cells stably expressing hMC2 receptor and hMRAP accessory protein) (Homo sapiens, UniProt Q01718).
T1 construct: crude membrane fractions
Kind of assay: hMC2 membrane binding assay ([125I]ACTH (1-39) Tyr23, SPA). To be noted: displacement of 0.2 nM [125I]ACTH (1-39) Tyr23 from hMC2R membranes, 1.5 hours at room temperature; read-out: MC2R binding potency. The gist of the method: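 Crude membranes from CRE-bla-CHO-K1 cells stably co-expressing hMC2R and hMRAP, premixed with WGA PVT SPA beads in pH 7.4 HEPES buffer (5 mM MgCl2, 1 mM CaCl2, 0.20% BSA, protease inhibitors). Compounds compete with [125I]ACTH(1-39) Tyr23, read by scintillation. Ki from non-linear regression.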
With `CCOc1ncccc1-c1ccc(C2(C(=O)N[C@H]3CCN(C)C3)CCN(c3ncc(C(F)(F)F)cc3C#N)CC2)cn1` [Compound 1-42, 1-[3-cyano-5-(trifluoromethyl)pyridin-2-yl]-4-{2′-ethoxy-[2,3′-bipyridin]-5-yl}-N-[(3S)-1-methylpyrrolidin-3-yl]piperidine-4-carboxamide], the Ki is less than 10 nM. To `CCOc1ccccc1-c1ccc(C2(NC(=O)[C@@H]3CCN(C)C3)CCN(c3ccc(Cl)cc3C#N)CC2)cn1` [Compound 2-29, (3R)—N-[1-(4-chloro-2-cyanophenyl)-4-[6-(2-ethoxyphenyl)pyridin-3-yl]piperidin-4-yl]-1-methylpyrrolidine-3-carboxamide] belongs less than 10 nM. The value for `CN1CC[C@@H](NC(=O)C2(c3ccc(-c4cccc(F)c4)nc3)CCN(c3ccc(C(F)(F)F)cc3C#N)CC2)C1` [Compound 1-64, 1-[2-cyano-4-(trifluoromethyl)phenyl]-4-[6-(3-fluorophenyl)pyridin-3-yl]-N-[(3R)-1-methylpyrrolidin-3-yl]piperidine-4-carboxamide] was less than 10 nM; that for `CNCCNC(=O)C1(c2cnc(-c3ccccc3OC)c(F)c2)CCN(c2ccc(C(F)(F)F)cc2C#N)CC1` [Compound 1-196, 1-[2-cyano-4-(trifluoromethyl)phenyl]-4-[5-fluoro-6-(2-methoxyphenyl)pyridin-3-yl]-N-[2-(methylamino)ethyl]piperidine-4-carboxamide] was less than 10 nM; that for `COc1ncccc1-c1ccc(C2(C(=O)NCCN(C)C)CCN(c3ccc(C(F)(F)F)cc3Cl)CC2)cn1` [Compound 1-273, 1-[2-chloro-4-(trifluoromethyl)phenyl]-N-[2-(dimethylamino)ethyl]-4-{2′-methoxy-[2,3′-bipyridin]-5-yl}piperidine-4-carboxamide] was less than 10 nM. The value for `CNCCCNC(=O)C1(c2ccc(-c3cccn3C)nc2)CCN(c2ccc(C(F)(F)F)cc2C#N)CC1` [Compound 1-206, 1-[2-cyano-4-(trifluoromethyl)phenyl]-4-[6-(1-methyl-1H-pyrrol-2-yl)pyridin-3-yl]-N-[3-(methylamino)propyl]piperidine-4-carboxamide] was 10 to 100 nM; that for `CCOc1ncccc1-c1ccc(C2(C(=O)NCCCN)CCN(c3ccc(C(F)(F)F)cc3C#N)CC2)cc1` [Compound 1-5, N-(3-aminopropyl)-1-[2-cyano-4-(trifluoromethyl)phenyl]-4-[4-(2-ethoxypyridin-3-yl)phenyl]piperidine-4-carboxamide] was 10 to 100 nM. `CN1CC[C@H](NC(=O)C2(c3ccc(-c4cccn4C)nn3)CCN(c3ccc(C(F)(F)F)cc3C#N)CC2)C1` [Compound 1-168, 1-[2-cyano-4-(trifluoromethyl)phenyl]-4-[6-(1-methyl-1H-pyrrol-2-yl)pyridazin-3-yl]-N-[(3S)-1-methylpyrrolidin-3-yl]piperidine-4-carboxamide]: the Ki was less than 10 nM.

For the compound `COc1ccc(F)cc1-c1ncc(C2(C(=O)N[C@H]3CCN(C)C3)CCN(c3ccc(C(F)(F)F)cc3F)CC2)cc1F` [Compound 1-204, 1-[2-fluoro-4-(trifluoromethyl)phenyl]-4-[5-fluoro-6-(5-fluoro-2-methoxyphenyl)pyridin-3-yl]-N-[(3S)-1-methylpyrrolidin-3-yl]piperidine-4-carboxamide], the Ki was less than 10 nM. Consider `CCOc1ccccc1-c1ccc(C2(C(=O)N[C@H]3CCN(C)C3)CCN(c3ccc(C(F)(F)F)cc3C#N)CC2)cn1` [Compound 1-30, 1-[2-cyano-4-(trifluoromethyl)phenyl]-4-[6-(2-ethoxyphenyl)pyridin-3-yl]-N-[(3S)-1-methylpyrrolidin-3-yl]piperidine-4-carboxamide], for which the Ki is less than 10 nM. For `CCOc1ccccc1-c1ccc(C2(C(=O)NC3CN(C)C3)CCN(c3ccc(Cl)cc3C#N)CC2)cn1` [Compound 1-93, 1-(4-chloro-2-cyanophenyl)-4-[6-(2-ethoxyphenyl)pyridin-3-yl]-N-(1-methylazetidin-3-yl)piperidine-4-carboxamide], the Ki is less than 10 nM. On to `COc1c(F)cc(F)cc1-c1ccc(C2(C(=O)N[C@@H]3CCN(C)C3)CCN(c3ccc(C(F)(F)F)cc3C#N)CC2)cn1` [Compound 1-87, 1-[2-cyano-4-(trifluoromethyl)phenyl]-4-[6-(3,5-difluoro-2-methoxyphenyl)pyridin-3-yl]-N-[(3R)-1-methylpyrrolidin-3-yl]piperidine-4-carboxamide], for which the Ki is less than 10 nM.

For the compound `CCOc1ncccc1-c1ccc(C2(C(=O)N[C@@H]3CCN(C)C3)CCN(c3ccc(C(F)(F)F)cc3C)CC2)cc1` [Compound 1-164, 4-[4-(2-ethoxypyridin-3-yl)phenyl]-1-[2-methyl-4-(trifluoromethyl)phenyl]-N-[(3R)-1-methylpyrrolidin-3-yl]piperidine-4-carboxamide], the Ki lay in the range of 10 to 100 nM. To `CN(C)CCNC(=O)C1(c2cnc(-c3cccn3C)c(F)c2)CCN(c2ccc(C(F)(F)F)cc2Cl)CC1` [Compound 1-309, 1-[2-chloro-4-(trifluoromethyl)phenyl]-N-[2-(dimethylamino)ethyl]-4-[5-fluoro-6-(1-methyl-1H-pyrrol-2-yl)pyridin-3-yl]piperidine-4-carboxamide] belongs less than 10 nM; to `CNCCNC(=O)C1(c2cnc(-c3cccn3C)c(F)c2)CCN(c2ccc(C(F)(F)F)cc2F)CC1` [Compound 1-305, 1-[2-fluoro-4-(trifluoromethyl)phenyl]-4-[5-fluoro-6-(1-methyl-1H-pyrrol-2-yl)pyridin-3-yl]-N-[2-(methylamino)ethyl]piperidine-4-carboxamide], less than 10 nM; to `COc1ccccc1-c1ccc(C2(C(=O)NC3CN(C)C3)CCN(c3ccc(Cl)cc3C#N)CC2)cn1` [Compound 1-92, 1-(4-chloro-2-cyanophenyl)-4-[6-(2-methoxyphenyl)pyridin-3-yl]-N-(1-methylazetidin-3-yl)piperidine-4-carboxamide], less than 10 nM. For the compound `CCOc1ncccc1-c1ncc(C2(C(=O)N[C@@H](C)CN(C)C)CCN(c3ccc(C(F)(F)F)cc3F)CC2)cc1F` [Compound 1-312, N-[(2S)-1-(dimethylamino)propan-2-yl]-4-{2′-ethoxy-3-fluoro-[2,3′-bipyridin]-5-yl}-1-[2-fluoro-4-(trifluoromethyl)phenyl]piperidine-4-carboxamide], the Ki was less than 10 nM.

In the case of `CCOc1ccccc1-c1ncc(C2(C(=O)NCCN(C)C)CCN(c3ccc(C(F)(F)F)cc3Cl)CC2)cc1F` [Compound 1-291, 1-[2-chloro-4-(trifluoromethyl)phenyl]-N-[2-(dimethylamino)ethyl]-4-[6-(2-ethoxyphenyl)-5-fluoropyridin-3-yl]piperidine-4-carboxamide], the Ki was less than 10 nM.

Take `CCc1ccccc1-c1ccc(C2(C(=O)N[C@H]3CCN(C)C3)CCN(c3ccc(C(F)(F)F)cc3Cl)CC2)cn1` [Compound 1-156, 1-[2-chloro-4-(trifluoromethyl)phenyl]-4-[6-(2-ethylphenyl)pyridin-3-yl]-N-[(3S)-1-methylpyrrolidin-3-yl]piperidine-4-carboxamide]: the Ki was less than 10 nM. The value for `CCOc1ncccc1-c1ccc(C2(C(=O)N[C@@H](C)CN(C)C)CCN(c3ccc(C(F)(F)F)cc3F)CC2)cn1` [Compound 1-317, N-[(2S)-1-(dimethylamino)propan-2-yl]-4-{2′-ethoxy-[2,3′-bipyridin]-5-yl}-1-[2-fluoro-4-(trifluoromethyl)phenyl]piperidine-4-carboxamide] was less than 10 nM.
